The results in this text go back to patent publication US20220395553A1, “CXCR4 ANTAGONIST PEPTIDES” (COHBAR, INC., priority 2019, published 2022).

The nature of data set [1]: Cell viability, PrestoBlue assay. The class given is cell-based. Conditions: human. The protocol: The effect of the peptides on cell viability can be assessed in cultured cells using suitable assay of viability such as the PrestoBlue® assay (Thermo Fisher Scientific, Waltham, Mass.). Peptides were initially prepared as 10 mM stock in DMSO and tested at a final concentration of 10 μM (0.1% DMSO). […] PrestoBlue Assay Reagent was purchased from Thermo Fisher Scientific. A172 human brain glioblastoma cell line was purchased from American Type Culture Collection (Manassas, Va.). A172 cells were grown in DMEM supplemented with 10% FBS with 100 IU/ml penicillin and 100 μg/ml streptomycin. Cultures were maintained at 37° C. in a humidified atmosphere of 5% CO2/95% air. A172 cells were seeded at 8,000 cells per well on 96-well plates. […] Cell viability was determined using a PrestoBlue Assay reagent […] according to the manufacturer's instructions. Absorption for each sample well on the plate was measured using a Cytation 3 plate reader at 560 nm and 590 nm (BioTek, Winooski, Vt.). Activity was calculated relative to 0.1% DMSO untreated control. Treatment with 0.1% DMSO alone was used as the cell viability activity control. The relative standard deviation of the DMSO control was <5%.

A further data set concerns 3T3-L1 Mouse Adipocytes. The experiment in a line: Free fatty acid levels in cultured mouse adipocytes. Format: cell-based. Conditions: peptide 10 μM, 20-22 hours then 3 hours with 1 nM isoproterenol; relative to isoproterenol treated cells. The protocol:
The effect of the peptides on fatty acid metabolism can be assessed using an assay of free fatty acid levels in cultured cells such as mouse adipocytes. Peptides were initially prepared as 10 mM stock in DMSO and used at a final concentration of 10 μM (0.1% DMSO). […] Mouse 3T3-L1 cells purchased from ZenBio were seeded at 3,000 cells per well in 96-well plates in Pre-adipocyte Medium (Zen-Bio) and grown to confluence at 37° C. in a humidified atmosphere of 5% CO2/95% air. Two days after confluence, cells were placed in Adipocyte Differentiation Medium (Zen-Bio) and cultured for three additional days at 37° C. in a humidified atmosphere of 5% CO2/95% air. The culture media was then replaced with Adipocyte Maintenance Medium (Zen-Bio) and the cells maintained for an additional 9-12 days at 37° C. in a humidified atmosphere of 5% CO2/95% air with partial medium replacement every other day. Following 12-15 days of differentiation, test peptides were added at a final concentration of 10 μM in 0.1% DMSO and incubated for 20-22 hours in Adipocyte Maintenance Medium at 37° C. in a humidified atmosphere of 5% CO2/95% air. After 20-22 hours, 1 nM isoproterenol was added to all wells except untreated controls and test peptides were replenished. Insulin at 100 nM was added to control wells. Cells were incubated for 3 hours in Assay Buffer (Zen-Bio) at 37° C. in a humidified atmosphere of 5% CO2/95% air. Free fatty acid concentrations in the media were determined using a Free Fatty Acid Assay kit (Zen-Bio) according to the manufacturer's instructions using a Cytation 3 plate reader at 540 nm (BioTek, Winooski, Vt.). Absorbance values were corrected for untreated background and expressed relative to isoproterenol treated cells. Treatment with isoproterenol (1 nM) alone was used as the free fatty acid level stimulatory control. The relative standard deviation of the isoproterenol control was <10%. […] Free fatty acid levels for insulin (100 nM) treatment were <5% of the isoproterenol control value.

For data set [2], the system named is SH-SY5Y Neuroblastoma Cells. The experiment in a line: ATP levels (CellTiter-Glo). Conditions: peptide 10 μM, 18-20 hours, relative to 0.1% DMSO treated control. Format: cell-based, human. As to the method:
The effect of the peptides on cellular metabolism can be assessed using an assay of ATP levels in cultured cells such as human neuroblastoma cells. Peptides were initially prepared as 10 mM stock in DMSO and used at a final concentration of 10 μM (0.1% DMSO). […] CellTiter-Glo® Assay kit was purchased from Promega. SH-SY5Y human bone marrow neuroblastoma cell line was purchased from American Type Culture Collection (Manassas, Va.) and licensed from Memorial Sloan-Kettering Cancer Center (New York, N.Y.). SH-SY5Y cells were grown in DMEM/F12 medium supplemented with 10% FBS with 100 IU/ml penicillin and 100 μg/ml streptomycin. Cultures were maintained at 37° C. in a humidified atmosphere of 5% CO2/95% air. SH-SY5Y cells were seeded at 30,000 cells per well on 96-well plates. […] ATP levels were determined using a CellTiter-Glo Assay kit (Promega) according to the manufacturer's instructions. Luminescence for each sample well on the plate was measured using a Cytation 3 plate reader (BioTek, Winooski, Vt.). Activity was calculated relative to 0.1% DMSO treated control. The relative standard deviation of the result for the 0.1% DMSO treated control was <5%.

In data set [3] the test system is SH-SY5Y Neuroblastoma Cells. The experiment in a line: ATP levels in cells exposed to staurosporine. Format: cell-based, human. To be noted: peptide 10 μM plus staurosporine, 18-20 hours; <100% cytoprotective, >100% synergistic. As to the method:
Peptides were initially prepared as 10 mM stock in DMSO and tested at a final concentration of 10 μM (0.1% DMSO).
[…] CellTiter-Glo® Assay kit was purchased from Promega. SH-SY5Y human neuroblastoma cell line was purchased from American Type Culture Collection (Manassas, Va.) and licensed from Memorial Sloan-Kettering Cancer Center (New York, N.Y.). SH-SY5Y cells were grown in DMEM/F12 medium supplemented with 10% FBS with 100 IU/ml penicillin and 100 μg/ml streptomycin. Cultures were maintained at 37° C. in a humidified atmosphere of 5% CO2/95% air. SH-SY5Y cells were seeded at 30,000 cells per well on 96-well plates. […] ATP levels were determined using a CellTiter-Glo Assay kit (Promega) according to the manufacturer's instructions. Luminescence for each sample well on the plate was measured using a Cytation 3 plate reader (BioTek, Winooski, Vt.). […] A value less than 100% is indicative of a cytoprotective effect, while a value greater than 100% is indicative of a synergistic effect on viability.

Another data set relates to U937 cells. The experiment in a line: CXCL12 mediated cell migration, U937 cells. Format: cell-based, human. Conditions: peptides at 10 μM (also stated 1 μM), 100 nM CXCL12, 4 hours. As to the method: Peptides were initially prepared as 1 mM stock in H2O and tested at a final concentration of 1 μM. […] U937 cells were resuspended in serum free media containing 0.5% bovine serum albumin (RPMI+GlutaMax (Gibco/Thermo Fisher Scientific, Gaithersburg, Md.)) at density of 5×10^6 cells/ml. […] Following the 4 hour incubation period the filter inserts were carefully removed and the migration of cells across the filter into the bottom chamber (receiver wells) was determined by measuring ATP levels using Cell TiterGlo 2.0, according to manufacturer's instructions (Promega, Madison, Wis.); luminescence measured using a Cytation 3 plate reader (BioTek, Winooski, Vt.).

Square brackets hold non-standard residues; d marks the D form. Peptide text beside a SMILES is read from it.

With `CSCC[C@H](N)C(=O)N[C@@H](CC(C)C)C(=O)N[C@@H](CCCNC(=N)N)C(=O)N[C@@H](CCCNC(=N)N)C(=O)N[C@@H](Cc1ccc(O)cc1)C(=O)N[C@@H](Cc1c[nH]cn1)C(=O)N[C@@H](Cc1c[nH]cn1)C(=O)N[C@@H](CO)C(=O)N[C@H](C(=O)N[C@@H](CCCNC(=N)N)C(=O)N[C@@H](CO)C(=O)N[C@@H](CO)C(=O)N[C@@H](CC(C)C)C(=O)N[C@@H](CCCNC(=N)N)C(=O)N1CCC[C@H]1C(=O)N[C@@H](Cc1ccc(O)cc1)C(=O)N[C@H](C(=O)N[C@@H](CCCCN)C(=O)O)[C@@H](C)O)C(C)C` [compound 2] (H-MLRRYHHSVRSSLRPYTK-OH; N-terminus and C-terminus assumed), in data set [1], the viability at 10 μM is 96.4%. Moreover, the “Free Fatty Acid Levels, MEAN % ISO” value in the data set with 3T3-L1 Mouse Adipocytes is 83.2%. Moreover, in data set [2], the “ATP Levels, % Control” value was 100.1%. In addition, in data set [3], the “Percent of ATP Reduction Induced by Control” value came out at 84.5%. Also, the “Percent Inhibition of CXCL12 Mediated Migration” value (“Percent Inhibition” for short) in the data set with U937 cells was 58%.

`CC(C)C[C@H](NC(=O)[C@H](CO)NC(=O)[C@H](CO)NC(=O)[C@H](CCCNC(=N)N)NC(=O)[C@@H](NC(=O)[C@H](CO)NC(=O)[C@H](Cc1c[nH]cn1)NC(=O)[C@H](Cc1c[nH]cn1)NC(=O)[C@H](Cc1ccc(O)cc1)NC(=O)[C@H](CCCNC(=N)N)NC(=O)[C@H](CCCNC(=N)N)NC(=O)[C@@H](N)CC(C)C)C(C)C)C(=O)N[C@@H](CCCNC(=N)N)C(=O)N1CCC[C@H]1C(=O)N[C@@H](Cc1ccc(O)cc1)C(=O)N[C@H](C(=O)N[C@@H](CCCCN)C(=O)O)[C@@H](C)O` [compound 3] (H-LRRYHHSVRSSLRPYTK-OH; N-terminus and C-terminus assumed): the viability at 10 μM in data set [1] was 97.3%. Besides, the “Free Fatty Acid Levels, MEAN % ISO” value in the data set on 3T3-L1 Mouse Adipocytes stood at 82.0%. In data set [2], the “ATP Levels, % Control” value came out at 102.5%. Also, the “Percent of ATP Reduction Induced by Control” value in data set [3] came out at 84.9%. In addition, in the data set on U937 cells, the “Percent Inhibition” value turned out to be 101%.

In turn, `CC(C)C[C@H](NC(=O)[C@H](CO)NC(=O)[C@H](CO)NC(=O)[C@H](CCCNC(=N)N)NC(=O)[C@@H](NC(=O)[C@H](CO)NC(=O)[C@H](Cc1c[nH]cn1)NC(=O)[C@H](Cc1c[nH]cn1)NC(=O)[C@H](Cc1ccc(O)cc1)NC(=O)[C@H](CCCNC(=N)N)NC(=O)[C@H](CCC(=O)O)NC(=O)[C@@H](N)CC(C)C)C(C)C)C(=O)N[C@@H](CCCNC(=N)N)C(=O)N1CCC[C@H]1C(=O)N[C@@H](Cc1ccc(O)cc1)C(=O)N[C@H](C(=O)N[C@@H](CCCCN)C(=O)O)[C@@H](C)O` [compound 4] (H-LERYHHSVRSSLRPYTK-OH; N-terminus and C-terminus assumed) had a viability at 10 μM in data set [1] of 96%. Further, the “Free Fatty Acid Levels, MEAN % ISO” value in the data set with 3T3-L1 Mouse Adipocytes was determined as 92.3%. Besides, the “ATP Levels, % Control” value in data set [2] came out at 98.5%. For the same molecule, the “Percent of ATP Reduction Induced by Control” value in data set [3] is on record as 77.1%. The “Percent Inhibition” value in the data set with U937 cells was 98%.

Consider `CC(C)C[C@H](NC(=O)[C@H](CO)NC(=O)[C@H](CO)NC(=O)[C@H](CCCNC(=N)N)NC(=O)[C@@H](C)NC(=O)[C@H](CO)NC(=O)[C@H](Cc1c[nH]cn1)NC(=O)[C@H](Cc1c[nH]cn1)NC(=O)[C@H](Cc1ccc(O)cc1)NC(=O)[C@H](CCCNC(=N)N)NC(=O)[C@H](CCC(=O)O)NC(=O)[C@@H](N)CC(C)C)C(=O)N[C@@H](CCCNC(=N)N)C(=O)N1CCC[C@H]1C(=O)N[C@@H](Cc1ccc(O)cc1)C(=O)N[C@H](C(=O)O)[C@@H](C)O` [compound 5] (H-LERYHHS[dA]RSSLRPYT-OH; N-terminus and C-terminus assumed), for which the viability at 10 μM in data set [1] was 98.8%. In addition, the “Free Fatty Acid Levels, MEAN % ISO” value in the data set on 3T3-L1 Mouse Adipocytes is 86.9%. Also, the “ATP Levels, % Control” value in data set [2] is given as 97.0%. In addition, the “Percent of ATP Reduction Induced by Control” value in data set [3] came out at 80.0%. For the same molecule, the “Percent Inhibition” value in the data set with U937 cells was found to be 86%.
